From US20250136586A1, “Substituted 7-(Pyrimidin-4-yl)Quinolin-4(1H)-One Compounds as Cyclin Dependent Kinase Inhibitors” (BeiGene, Ltd., priority 2022, published 2025)

Key:
CDK4/Cyclin D1 = CDK4/Cyclin D1 (Homo sapiens (Human), UniProt P11802); assay: TR-FRET kinase inhibition assay, CDK4/Cyclin D1; format: biochemical; conditions: 1 mM ATP, 0.15 μM Rb (Ser780)-biotin substrate, read-out: CDK4D1 IC50
Outline: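 Kinase was preincubated with compound for 60 min at room temperature, then reacted with ATP and Rb (Ser780)-biotin substrate for 120 min. IC50 came from a four-parameter logistic fit.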

CDK6/Cyclin D3 = CDK6/Cyclin D3 (Homo sapiens (Human), UniProt Q00534); assay: TR-FRET kinase inhibition assay, CDK6/Cyclin D3; format: biochemical; conditions: 1 mM ATP, 0.15 μM Rb (Ser780)-biotin substrate, read-out: CDK6D3 IC50
Outline: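 Kinase preincubated 60 min at room temperature with 0–10 μM compound; reaction started with 1 mM ATP and 0.15 μM Rb (Ser780)-biotin, run 120 min at room temperature in HEPES pH 7.0, 50 mM MgCl2. pRb detected by TR-FRET (665/620 nm ratio); IC50 from four-parameter logistic fit.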

Sequence of CDK4/Cyclin D1 (P11802 whole entry): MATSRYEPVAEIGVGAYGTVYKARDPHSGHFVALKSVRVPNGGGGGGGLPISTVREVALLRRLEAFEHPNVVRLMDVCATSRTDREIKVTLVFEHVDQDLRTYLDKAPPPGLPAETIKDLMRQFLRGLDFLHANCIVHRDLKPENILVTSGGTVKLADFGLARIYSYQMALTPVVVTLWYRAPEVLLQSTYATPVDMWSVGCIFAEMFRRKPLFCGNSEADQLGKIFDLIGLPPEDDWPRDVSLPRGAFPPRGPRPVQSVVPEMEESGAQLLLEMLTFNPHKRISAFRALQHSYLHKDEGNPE
Sequence of CDK4/Cyclin D1 (P24385 whole entry partner): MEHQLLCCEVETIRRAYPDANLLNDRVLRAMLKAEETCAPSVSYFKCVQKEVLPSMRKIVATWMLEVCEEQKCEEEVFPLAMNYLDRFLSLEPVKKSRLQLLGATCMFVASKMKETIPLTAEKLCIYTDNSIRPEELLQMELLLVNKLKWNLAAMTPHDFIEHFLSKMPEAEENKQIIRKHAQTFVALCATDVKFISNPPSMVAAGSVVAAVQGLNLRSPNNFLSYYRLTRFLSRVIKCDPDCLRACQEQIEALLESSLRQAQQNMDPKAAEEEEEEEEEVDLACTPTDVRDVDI
Sequence of CDK6/Cyclin D3 (Q00534 whole entry): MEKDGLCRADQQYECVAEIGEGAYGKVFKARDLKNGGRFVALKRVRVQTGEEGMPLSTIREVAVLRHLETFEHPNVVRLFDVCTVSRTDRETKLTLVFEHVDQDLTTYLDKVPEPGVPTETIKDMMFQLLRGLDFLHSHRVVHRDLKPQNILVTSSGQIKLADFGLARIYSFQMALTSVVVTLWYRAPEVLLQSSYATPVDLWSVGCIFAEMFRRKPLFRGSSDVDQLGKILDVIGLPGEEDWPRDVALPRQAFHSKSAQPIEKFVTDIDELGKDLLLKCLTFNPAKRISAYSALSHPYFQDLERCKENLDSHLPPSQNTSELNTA
Sequence of CDK6/Cyclin D3 (P30281 whole entry partner): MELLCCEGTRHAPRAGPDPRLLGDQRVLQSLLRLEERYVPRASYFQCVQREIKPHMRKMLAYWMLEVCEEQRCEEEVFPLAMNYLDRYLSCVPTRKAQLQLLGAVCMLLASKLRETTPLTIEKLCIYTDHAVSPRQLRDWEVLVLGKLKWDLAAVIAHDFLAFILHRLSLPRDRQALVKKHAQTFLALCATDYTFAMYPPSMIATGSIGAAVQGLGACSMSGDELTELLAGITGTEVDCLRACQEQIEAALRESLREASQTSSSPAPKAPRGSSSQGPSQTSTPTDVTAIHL

Row | IC50 (CDK4/Cyclin D1) | IC50 (CDK6/Cyclin D3) | SMILES
1 | 4.7 nM | 113 nM | Cc1c(CN2CCC(F)(F)CC2)n(C(C)C)c2cc(-c3nc(N[C@@H]4CCOC[C@H]4O)ncc3F)ccc2c1=O [Example 121, 2-((4,4-difluoropiperidin-1-yl)methyl)-7-(5-fluoro-2-(((3S,4R)-3-hydroxytetrahydro-2H-pyran-4-yl)amino)pyrimidin-4-yl)-1-isopropyl-3-methylquinolin-4(1H)-one]
2 | 15 nM | 645 nM | CC(C)n1c(CN2CCC(C)(C)C2)cc(=O)c2ccc(-c3nc(N[C@@H]4CCOC[C@H]4O)ncc3F)cc21 [Example 42, 2-((3,3-dimethylpyrrolidin-1-yl)methyl)-7-(5-fluoro-2-(((3S,4R)-3-hydroxytetrahydro-2H-pyran-4-yl)amino)pyrimidin-4-yl)-1-isopropylquinolin-4(1H)-one]
3 | 21 nM | 777 nM | CC(C)n1c(CN2CC[C@H](O)C2)cc(=O)c2ccc(-c3nc(N[C@@H]4CCOC[C@H]4O)ncc3F)cc21 [Example 86, 7-(5-fluoro-2-(((3S,4R)-3-hydroxytetrahydro-2H-pyran-4-yl)amino)pyrimidin-4-yl)-2-(((S)-3-hydroxypyrrolidin-1-yl)methyl)-1-isopropylquinolin-4(1H)-one]
4 | 8.2 nM | 139 nM | CC(C)n1c(CN2CCOCC2)cc(=O)c2ccc(-c3nc(N[C@@H]4CCOC[C@H]4O)ncc3F)cc21 [Example 25, 7-(5-fluoro-2-(((3S,4R)-3-hydroxytetrahydro-2H-pyran-4-yl)amino)pyrimidin-4-yl)-1-isopropyl-2-(morpholinomethyl)quinolin-4(1H)-one]
5 | 8.8 nM | 150 nM | Cc1c(C2CC2)c(=O)c2ccc(-c3nc(N[C@@H]4CCOC[C@H]4O)ncc3F)cc2n1C(C)C [Example 40, 3-cyclopropyl-7-(5-fluoro-2-(((3S,4R)-3-hydroxytetrahydro-2H-pyran-4-yl)amino)pyrimidin-4-yl)-1-isopropyl-2-methylquinolin-4(1H)-one]
6 | 21 nM | 483 nM | CC(C)n1c(CN[C@H]2CCOC2)cc(=O)c2ccc(-c3nc(N[C@@H]4CCOC[C@H]4O)ncc3F)cc21 [Example 67, 7-(5-fluoro-2-(((3S,4R)-3-hydroxytetrahydro-2H-pyran-4-yl)amino)pyrimidin-4-yl)-1-isopropyl-2-((((S)-tetrahydrofuran-3-yl)amino)methyl)quinolin-4(1H)-one]
7 | 21 nM | 651 nM | CC(C)n1c(CNC2CCCC2)cc(=O)c2ccc(-c3nc(N[C@@H]4CCOC[C@H]4O)ncc3F)cc21 [Example 66, 2-((cyclopentylamino)methyl)-7-(5-fluoro-2-(((3S,4R)-3-hydroxytetrahydro-2H-pyran-4-yl)amino)pyrimidin-4-yl)-1-isopropylquinolin-4(1H)-one]
8 | 57 nM | 553 nM | CNC(=O)c1cc(=O)c2c(Cl)cc(-c3nc(N[C@@H]4CCOC[C@H]4O)ncc3F)cc2n1C(C)C [Example 36, 5-chloro-7-(5-fluoro-2-(((3S,4R)-3-hydroxytetrahydro-2H-pyran-4-yl)amino)pyrimidin-4-yl)-1-isopropyl-N-methyl-4-oxo-1,4-dihydroquinoline-2-carboxamide]
9 | 12 nM | 480 nM | CC(C)n1c(CN2C[C@@H](O)[C@H](F)C2)cc(=O)c2ccc(-c3nc(N[C@@H]4CCOC[C@H]4O)ncc3F)cc21 [Example 46, 7-(5-fluoro-2-(((3S,4R)-3-hydroxytetrahydro-2H-pyran-4-yl)amino)pyrimidin-4-yl)-2-(((3R,4R)-3-fluoro-4-hydroxypyrrolidin-1-yl)methyl)-1-isopropylquinolin-4(1H)-one]
10 | 24 nM | 432 nM | CNC(=O)c1c(C)c(=O)c2ccc(-c3nc(N[C@@H]4CCOC[C@H]4O)ncc3F)cc2n1C(C)C [Example 24, 7-(5-fluoro-2-(((3S,4R)-3-hydroxytetrahydro-2H-pyran-4-yl)amino)pyrimidin-4-yl)-1-isopropyl-N,3-dimethyl-4-oxo-1,4-dihydroquinoline-2-carboxamide]
11 | 5.9 nM | 265 nM | Cc1c(CN)n(C(C)C)c2cc(-c3nc(N[C@@H]4CCOC[C@H]4O)ncc3F)ccc2c1=O [Example 120, 2-(aminomethyl)-7-(5-fluoro-2-(((3S,4R)-3-hydroxytetrahydro-2H-pyran-4-yl)amino)pyrimidin-4-yl)-1-isopropyl-3-methylquinolin-4(1H)-one]
12 | 6.4 nM | 467 nM | CC(C)n1c(CN2CCC[C@]3(CCN(C)C3=O)C2)cc(=O)c2ccc(-c3nc(N[C@@H]4CCOC[C@H]4O)ncc3F)cc21 [Example 52, (S)-7-((7-(5-fluoro-2-(((3S,4R)-3-hydroxytetrahydro-2H-pyran-4-yl)amino)pyrimidin-4-yl)-1-isopropyl-4-oxo-1,4-dihydroquinolin-2-yl)methyl)-2-methyl-2,7-diazaspiro[4,5]decan-1-one]
13 | 17 nM | 255 nM | CC(C)n1c(CN2CCO[C@@H](C)C2)cc(=O)c2ccc(-c3nc(N[C@@H]4CCOC[C@H]4O)ncc3F)cc21 [Example 62, 7-(5-fluoro-2-(((3S,4R)-3-hydroxytetrahydro-2H-pyran-4-yl)amino)pyrimidin-4-yl)-1-isopropyl-2-(((S)-2-methylmorpholino)methyl)quinolin-4(1H)-one]
14 | 2.7 nM | 140 nM | Cc1c(CN2[C@H](C)COC[C@H]2C)n(C(C)C)c2cc(-c3nc(N[C@@H]4CCOC[C@H]4O)ncc3F)ccc2c1=O [Example 71, 2-(((3R,5R)-3,5-dimethylmorpholino)methyl)-7-(5-fluoro-2-(((3S,4R)-3-hydroxytetrahydro-2H-pyran-4-yl)amino)pyrimidin-4-yl)-1-isopropyl-3-methylquinolin-4(1H)-one]
15 | 12 nM | 516 nM | Cc1c(CN2CCC(C)(O)CC2)n(C(C)C)c2cc(-c3nc(N[C@@H]4CCOC[C@H]4O)ncc3F)ccc2c1=O [Example 103, 7-(5-fluoro-2-(((3S,4R)-3-hydroxytetrahydro-2H-pyran-4-yl)amino)pyrimidin-4-yl)-2-((4-hydroxy-4-methylpiperidin-1-yl)methyl)-1-isopropyl-3-methylquinolin-4(1H)-one]
16 | 22 nM | 352 nM | CC(C)n1c(CNc2cnn(C)c2)cc(=O)c2ccc(-c3nc(N[C@@H]4CCOC[C@H]4O)ncc3F)cc21 [Example 78, 7-(5-fluoro-2-(((3S,4R)-3-hydroxytetrahydro-2H-pyran-4-yl)amino)pyrimidin-4-yl)-1-isopropyl-2-(((1-methyl-1H-pyrazol-4-yl)amino)methyl)quinolin-4(1H)-one]
17 | 13 nM | 208 nM | CC(C)n1c(CNc2cccc(Cl)c2)cc(=O)c2ccc(-c3nc(N[C@@H]4CCOC[C@H]4O)ncc3F)cc21 [Example 95, 2-(((3-chlorophenyl)amino)methyl)-7-(5-fluoro-2-(((3S,4R)-3-hydroxytetrahydro-2H-pyran-4-yl)amino)pyrimidin-4-yl)-1-isopropylquinolin-4(1H)-one]
18 | 14 nM | 392 nM | Cc1c(CN(C)C)n(C(C)C)c2cc(-c3nc(N[C@@H]4CCOC[C@H]4O)ncc3F)ccc2c1=O [Example 108, 2-((dimethylamino)methyl)-7-(5-fluoro-2-(((3S,4R)-3-hydroxytetrahydro-2H-pyran-4-yl)amino)pyrimidin-4-yl)-1-isopropyl-3-methylquinolin-4(1H)-one]
19 | 14 nM | 658 nM | CC(C)NCc1cc(=O)c2ccc(-c3nc(N[C@@H]4CCOC[C@H]4O)ncc3F)cc2n1C(C)C [Example 47, 7-(5-fluoro-2-(((3S,4R)-3-hydroxytetrahydro-2H-pyran-4-yl)amino)pyrimidin-4-yl)-1-isopropyl-2-((isopropylamino)methyl)quinolin-4(1H)-one]
20 | 93 nM | 539 nM | CC(C)n1c(C(=O)N2CCOCC2)cc(=O)c2ccc(-c3nc(N[C@@H]4CCOC[C@H]4O)ncc3Cl)cc21 [Example 13, 7-(5-chloro-2-(((3S,4R)-3-hydroxytetrahydro-2H-pyran-4-yl)amino)pyrimidin-4-yl)-1-isopropyl-2-(morpholine-4-carbonyl)quinolin-4(1H)-one]
21 | 1.6 nM | 68.8 nM | Cc1c(CN2CCC[C@@H](O)C2)n(C(C)C)c2cc(-c3nc(N[C@@H]4CCOC[C@H]4O)ncc3F)ccc2c1=O [Example 122, 7-(5-fluoro-2-(((3S,4R)-3-hydroxytetrahydro-2H-pyran-4-yl)amino)pyrimidin-4-yl)-2-(((R)-3-hydroxypiperidin-1-yl)methyl)-1-isopropyl-3-methylquinolin-4(1H)-one]
22 | 4.1 nM | 131 nM | Cc1c(CN2CC[C@@H](F)C2)n(C(C)C)c2cc(-c3nc(N[C@@H]4CCOC[C@H]4O)ncc3F)ccc2c1=O [Example 92, 7-(5-fluoro-2-(((3S,4R)-3-hydroxytetrahydro-2H-pyran-4-yl)amino)pyrimidin-4-yl)-2-(((R)-3-fluoropyrrolidin-1-yl)methyl)-1-isopropyl-3-methylquinolin-4(1H)-one]

Row | SMILES | IC50 (CDK4/Cyclin D1) | IC50 (CDK6/Cyclin D3)
23 | CC(C)n1c(CN2C3CCC2COC3)cc(=O)c2ccc(-c3nc(N[C@@H]4CCOC[C@H]4O)ncc3F)cc21 [Example 29, 2-((3-oxa-8-azabicyclo[3.2.1]octan-8-yl)methyl)-7-(5-fluoro-2-(((3S,4R)-3-hydroxytetrahydro-2H-pyran-4-yl)amino)pyrimidin-4-yl)-1-isopropylquinolin-4(1H)-one] | 19 nM | 361 nM
